Values of other authors as cited in US12226503B2, “Prebiotic skin care compositions containing carboxylic acids” (priority 2019, dated 2025).

Details: toxic or irritant for humans or on skin

Molecule: O=C(O)CC(O)C(=O)O (racemic) [D,L-Malic acid]
- Toxicity: +

Molecule: CCC(N)C(=O)O (racemic) [D,L-α-amino-N-butyric acid]
- Toxicity: +

Molecule: CCCCCCC(N)C(=O)O (racemic) [D,L-α-amino-caprylic acid]
- Toxicity: +

Molecule: O=C(O)c1ccc(O)cc1 [4-hydroxybenzoic acid]
- Toxicity: +

Molecule: O=C(O)[C@@H](O)[C@@H](O)[C@H](O)[C@@H](O)C(=O)O [D-saccharic acid]
- Toxicity: +

Molecule: COc1cc(/C=C/C(=O)O)ccc1O [Ferulic acid]
- Toxicity: +

Molecule: O=C(O)/C=C/C(=O)O [Fumaric acid]
- Toxicity: +

Molecule: O=C(O)c1cc(O)c(O)c(O)c1 [Gallic acid]
- Toxicity: +

Molecule: O=CC(=O)O [Glyoxylic acid]
- Toxicity: +

Molecule: O=C(O)CNC(=O)c1ccccc1 [Hippuric acid]
- Toxicity: +

Molecule: C[C@H](O)C(=O)O [L-lactic acid]
- Toxicity: +

Molecule: O=C(O)[C@@H](O)[C@H](O)[C@H](O)[C@@H](O)C(=O)O [Mucic acid]
- Toxicity: +

Molecule: CC(=O)N[C@H]1[C@H]([C@H](O)[C@H](O)CO)O[C@](O)(C(=O)O)C[C@@H]1O [N-acetyl-neuraminic acid]
- Toxicity: +

Molecule: CCCCCCCCCCCCCCCCCC(=O)O [Stearic acid]
- Toxicity: +

Molecule: O=C(O)C(CO)c1ccccc1 (stereo not shown) [Tropic acid]
- Toxicity: +

Molecule: CC(O)CC(=O)O (stereo not drawn) [β-hydroxybutyric acid]
- Toxicity: +

Molecule: NCCCC(=O)O [γ-Aminobutyric acid]
- Toxicity: +

Molecule: NCCCCCC(=O)O [ε-Amino-N-caproic acid]
- Toxicity: +

Molecule: Citric acid
- Toxicity: +
